Source: patent US6111080A, “Monoclonal antibodies” (Washington University, priority 1993, dated 2000)

System: RGD-binding receptor on PMN (B6H12 antigen, heterodimer of 140 kd and 105 kd)
Test: Cytochrome c-RGDS binding assay (inhibition of 125I-cc-RGDS specific binding to PMN)
Set-up: species or system human
Conditions: unlabelled inhibitor 500 μg/ml; 40 μg 125I-cc-RGDS, 1.0 × 10^6 PMN, 5,000 units catalase in 1 ml, 30 min at 37° C.; relative to cc-C
Protocol: Cytochrome c-RGDS was radioiodinated by chloroglycoluril [Markwell and Fox, Biochemistry 17, 4807-4817 (1978)] for 15 min at 0° C. PMN (5.0×10^5) in HBSS^++ -1% OVA were incubated with 10 μg of radiolabelled cc-RGDS in the presence of 5K U/ml of catalase and 293 μg of unlabelled cc-C in a final volume of 250 μl. The reaction mixtures were incubated in 1.5 ml Eppendorf tubes for 30 min at 37° C. The mixtures were overlayered on Versilube (General Electric) and centrifuged at 12,000×g to assess pellet associated radioactivity. Specific binding was determined by subtracting the radioactivity bound in the presence of […] of unlabelled cc-RGDS from the total radioactivity. Unlabelled cc-C was included in the reaction to control for any binding due to cytochrome c and not specifically due to the RGDS moiety. For inhibition tests, the various inhibitors were included in the reaction at the indicated concentrations. Antibodies were incubated with the PMN at the indicated concentrations for 15 min at room temperature prior to the addition of the other reactants.
^a PMN (1.0 × 10^6) were incubated with 40 μg of ^12
Icc-RGDS with the indicated concentrations of unlabelled inhibitors in th
presence of 5,000 units of catalase in 1 ml for 30 min at 37° C.
The PMN were centrifuged through oil and the pelletassociated counts
assessed. […]
^b Calculated from the mean cpm's. […]

% I (percent inhibition of cc-RGDS specific binding to PMN): 79.6%
Substance: GRGDSC
